Experimental data: PMC4810358, “Applicability of the Rayleigh equation for enantioselective metabolism of chiral xenobiotics by microsomes, hepatocytes and in-vivo retention in rabbit tissues” (Scientific Reports, 2016)
Values joined by “and” are separate entries in the source; they are usually repeats but may differ in a detail not shown here. Equal values may be shown once. Read-outs that look alike come from different tables or passages of the source.

Legend:
[1] = enantioselective degradation of paclobutrazol in rat liver microsomes (Wu et al.); assay type: in vitro ADME; settings: reconstructed from data of Fig. 3A in ref 19; R^2 0.97
Experimental: (§1) In addition to the microsome studies, the Rayleigh equation was fitted to reported studies on biodegradation of chiral compounds using liver microsomes and hepatocytes for which there was sufficient data available. We focused on studies published on years 2011–2015 that reported on first order kinetics and/or provided concentration - time profiles of the individual enantiomers after incubation of the racemate with the metabolizer, i.e. systems analyzed by approach II in the introduction.

[2] = de-methylation (enantioselective degradation) by Lewis rat liver microsomes; assay type: in vitro ADME; settings: RLM-L; for Overall first order kinetic constant, kc: racemate, 37 °C, 0–120 min; for Enantiomeric enrichment factor, εER: mean ± 95% confidence interval of Rayleigh slope, n = 3, NE = no enrichment
Experimental: (§2) The reactions were initiated by the addition of 120 μl NADPH-regenerating system (100 μL of solution A and 20 μL of solution B) that were added after a 3-min pre-incubation of the incubation mixtures containing 10 μl of substrate (1 g/L), 50 μl human/rat hepatic microsomes (20 mg protein/ml) and […] sodium phosphate buffer, 0.1 M pH 7.4 final volume was 500 μl. The reactions were stopped at time intervals by cooling on ice and addition of 100 μl acetonitrile followed by the addition of 20 μL internal standards stock solution (0.1 g/L). After termination of the reaction 200 microliter sodium carbonate solution (1 M, pH 12) was added and samples were then vigorously shaken for 1 min and consequently extracted into 6 ml n-hexane/acetonitrile (98/2 vol/vol) using an Intelli mixer on 50 rpm for 5 min. after centrifugation for 10 min (6,000 rpm) the upper organic layer was collected and the procedure was repeated. The samples were eventually evaporated till dry under a gentle stream of nitrogen. The residue was dissolved in 200 microliter methanol and analyzed by HPLC-MS. These degradation studies were done in duplicates.
(§3) Control assays were run under the same conditions, with 200 μL insect control supersomes (5 mg protein/ml) used as a negative control, i.e containing no CYP450 but the same protein content (cytochrome b5), while 10 μl of Verapamil (1 g/L) and 50 μl human microsomes (20 mg protein/ml) was incubated for 30 min as a positive control.
(§4) The chiral separation method was based on methodology of Begnall et al.[62]. […] For all separations the column and autosampler were maintained at 25 °C, with an optimal chromatographic run time of 24 minutes, the injection volume was 10 μL. QTOF mass spectrometer equipped with an electrospray ionization source (Agilent G3251A Dual ESI) was used for chiral drug identification and quantification. Analysis was performed in positive mode with a capillary voltage potential of 4000 V; the nebulizer gas pressure was set to 40 psi and drying gas flow was 10 L/min, with a drying gas temperature of 300 °C. The fragmentor voltage was set at 140 V, and skimmer voltage was 65 V. Scan range was 50–1000 m/z, the other MS parameters remained at auto-tune conditions.
(§5) The enantiomeric ratios were expressed as the ER – the peak area of one enantiomer (the more abundant) divided by that of the other enantiomer.

[3] = de-methylation (enantioselective degradation) by Sprague Dawley rat liver microsomes; assay type: in vitro ADME; settings: RLM-SD; for Overall first order kinetic constant, kc: racemate, 37 °C, 0–120 min; for Enantiomeric enrichment factor, εER: mean ± 95% confidence interval of Rayleigh slope, n = 3, NE = no enrichment
Experimental: as §2, §3, §4, §5

[4] = de-methylation (enantioselective degradation) by human liver microsomes; settings: HLM; for Overall first order kinetic constant, kc: racemate, 37 °C, 0–120 min; for Enantiomeric enrichment factor, εER: mean ± 95% confidence interval of Rayleigh slope, n = 3, NE = no enrichment
Experimental: as §2, §3, §4, §5

[5] = de-methylation (enantioselective degradation) by Wistar Han rat liver microsomes; assay type: in vitro ADME; settings: RLM-W; for Overall first order kinetic constant, kc: racemate, 37 °C, 0–120 min; for Enantiomeric enrichment factor, εER: mean ± 95% confidence interval of Rayleigh slope, n = 3, NE = no enrichment
Experimental: as §2, §3, §4, §5

[6] = de-methylation by liver microsomes, statements pooled over all microsome sources; assay type: in vitro ADME, human and rat; settings: through all the incubations with the various microsomes
Experimental: as §2, with “The samples were eventually evaporated till dry under a gentle stream of nitrogen.” left out, “These degradation studies were done in duplicates.” left out
The chiral separation method was based on methodology of Begnall et al.[62]. […] QTOF mass spectrometer equipped with an electrospray ionization source (Agilent G3251A Dual ESI) was used for chiral drug identification and quantification. […]
as §5

[7] = cited from earlier work; for first order half-life: hepatocytes from male Sprague-Dawley rats; for individual first order rate constant: myclobutanil, hepatocytes from male Sprague–Dawley rats
[8] = design: method as in PMID 24027055; settings: male Sprague–Dawley rat liver microsomes; cited from earlier work
[9] = design: method as in PMID 25820472; settings: rat liver microsomes; cited from earlier work
[10] = stereoselective degradation of metalaxyl in hepatic microsomes (Zhang et al.); assay type: in vitro ADME, rat and rabbit; settings: for individual degradation constant: calculated from concentration-time data of Fig. 3a in ref 22, R^2 = 0.98
Experimental: as §1

[11] = hepatic microsomes; cited from earlier work
[12] = loach liver microsomes; cited from earlier work
[13] = enantioselective metabolism in rat hepatocytes (reported studies); assay type: in vitro ADME
Experimental: as §1
Wang et al.[24] studied the enantioselective metabolism of the fungicide hexaconazole as well, they used male Sprague–Dawley rat hepatocytes. […] In a second test case, Wang et al.[52] studied the degradation of the fungicide myclobutanil in hepatocytes from male Sprague–Dawley rats.

[14] = enantioselective metabolism of diclofop-methyl in fish liver microsomes (Ma et al.); assay type: in vitro ADME, loach (Misgurnus anguillicaudatus); settings: reconstructed from data of Fig. 3A in ref 50; R^2 = 0.94
Experimental: as §1

[15] = metabolism of hexaconazole in male Sprague–Dawley rat liver microsomes (Shen et al.); assay type: in vitro ADME; settings: reconstructed from data of Fig. 3A in ref 20; R^2 = 0.99
Experimental: as §1

[16] = in vivo enantioselective behaviour in rabbit plasma and tissues after intravenous racemate (Sun et al.)
Excerpt: For example, Sun et al.[26] have reviewed the enantioselective behavior of the fungicide myclobutanil enantiomers in variant rabbit tissues following intravenous administration of the racemic fungicide. Using the plasma concentration-time curves of the two enantiomers (presented in Fig. 1A in ref. [26]) we obtained the enantiomeric enrichment factor of −28 ± 5 (R^2 = 0.97). Analysis of the distribution of myclobutanil in various tissues, presented in Fig. 3 in ref. [26], obtained the enantiomeric enrichment factors of −33 ± 16 (R^2 = 0.92) for the liver, −20 ± 6 (R^2 = 0.97) for the brain, −32 ± 16 (R^2 = 0.89) for the kidney and −21 ± 6 (R^2 = 0.97) for the muscle. […] This quantitative ranking is obscured by the large number of time trace data points in the original presentation. Another example can be presented by the study of Kong et al.[25] reporting on the stereoselective metabolism of the alpha blocker doxazosin (DOX) in vivo in male Sprague–Dawley rats.

CC(C)(C)[C@@H](O)[C@@H](Cc1ccc(Cl)cc1)n1cncn1 (racemic) [(2RS, 3RS)-paclobutrazol]
enantiomeric enrichment factor [1]: −66 ± 14%

CN(C)CCCC1(c2ccc(F)cc2)OCc2cc(C#N)ccc21 (racemic) [CTM, (R,S)-citalopram]
Overall first order kinetic constant, kc [2]: 0.007 min⁻¹ | Overall first order kinetic constant, kc [3]: 0.02 min⁻¹ | Enantiomeric enrichment factor, εER [3]: −10 ± 4 (0.92) % | Overall first order kinetic constant, kc [4]: 0.007 min⁻¹ | Enantiomeric enrichment factor, εER [4]: −36 ± 3 (0.95) % | Overall first order kinetic constant, kc [5]: 0.07 min⁻¹ | Enantiomeric enrichment factor, εER [5]: −53 ± 3 (0.95) %

CNCCC(Oc1ccc(C(F)(F)F)cc1)c1ccccc1 (racemic) [FLX, (R,S)-fluoxetine]
Overall first order kinetic constant, kc [2]: 0.04 min⁻¹ | Overall first order kinetic constant, kc [3]: 0.02 min⁻¹ | Overall first order kinetic constant, kc [4]: 0.01 min⁻¹ | Overall first order kinetic constant, kc [5]: 0.06 min⁻¹

CN1CCN2c3ccccc3Cc3ccccc3C2C1 (racemic) [MNS, (R,S)-mianserin]
Overall first order kinetic constant, kc [2]: 0.03 min⁻¹ | Enantiomeric enrichment factor, εER [2]: −53 ± 12 (0.98) % | Overall first order kinetic constant, kc [3]: 0.02 min⁻¹ | Enantiomeric enrichment factor, εER [3]: −11 ± 6 (0.92) % | Overall first order kinetic constant, kc [4]: 0.004 min⁻¹ | Enantiomeric enrichment factor, εER [4]: −237 ± 29% and −237 ± 29 (0.92) % | Overall first order kinetic constant, kc [5]: 0.008 min⁻¹ | Enantiomeric enrichment factor, εER [5]: −38 ± 5 (0.92) %

CN(C)CC(c1ccc(O)cc1)C1(O)CCCCC1 (racemic) [O-DMV, (R,S)-O-desmethylvanlafaxine]
Overall first order kinetic constant, kc [2]: 0.007 min⁻¹ | Enantiomeric enrichment factor, εER [2]: −59 ± 2 (0.94) % | Overall first order kinetic constant, kc [3]: 0.009 min⁻¹ | Enantiomeric enrichment factor, εER [3]: −9 ± 1 (0.96) % | Overall first order kinetic constant, kc [4]: 0.025 min⁻¹ | Enantiomeric enrichment factor, εER [4]: −7 ± 1 (0.98) % | Overall first order kinetic constant, kc [5]: 0.02 min⁻¹ | Enantiomeric enrichment factor, εER [5]: −4 ± 1% and −4 ± 1 (0.91) %

COc1ccc(C(CN(C)C)C2(O)CCCCC2)cc1 (racemic) [VNF, (R,S)-venlafaxine]
Overall first order kinetic constant, kc [2]: 0.009 min⁻¹ | Overall first order kinetic constant, kc [3]: 0.03 min⁻¹ | enantiomeric ratio, ER [6]: 1.1 ± 0.08 | Overall first order kinetic constant, kc [4]: 0.01 min⁻¹ | Overall first order kinetic constant, kc [5]: 0.05 min⁻¹

CCOC1Oc2ccc(OS(C)(=O)=O)cc2C1(C)C (single isomer, unassigned; (+)) [(+) ETO]
first order half-life ([7]; ethofumesate): 2.0 h

CCCCCCC(C)OC(=O)COc1nc(F)c(Cl)c(N)c1Cl (single isomer, unassigned; (+)) [(+) FPMH]
first order half-life ([7]; fluroxypyr methylheptyl ester): 0.085 h

CCCCC(O)(Cn1cncn1)c1ccc(Cl)cc1Cl (single isomer, unassigned; (+)) [(+)-hexaconazole]
individual first order degradation rate constant [8]: 0.09324 min⁻¹

CCCCC(C#N)(Cn1cncn1)c1ccc(Cl)cc1 (single isomer, unassigned; (+)) [(+)-myclobutanil]
individual first order rate constant [7]: 0.065 h⁻¹

CCOC1Oc2ccc(OS(C)(=O)=O)cc2C1(C)C (single isomer, unassigned; (-)) [(−) ETO]
first order half-life ([7]; ethofumesate): 4.1 h

CCCCCCC(C)OC(=O)COc1nc(F)c(Cl)c(N)c1Cl (single isomer, unassigned; (-)) [(−) FPMH]
first order half-life ([7]; fluroxypyr methylheptyl ester): 0.218 h

CCCCC(O)(Cn1cncn1)c1ccc(Cl)cc1Cl (single isomer, unassigned; (-)) [(−)-hexaconazole]
individual first order degradation rate constant [8]: 0.06804 min⁻¹

CCCCC(C#N)(Cn1cncn1)c1ccc(Cl)cc1 (single isomer, unassigned; (-)) [(−)-myclobutanil]
individual first order rate constant [7]: 0.046 h⁻¹

CC(C)(C)[C@@H](O)[C@@H](Cc1ccc(Cl)cc1)n1cncn1 [(2R, 3R)-paclobutraz]
individual first order degradation rate constant [9]: 0.0373 min⁻¹

CC(C)(C)[C@H](O)[C@H](Cc1ccc(Cl)cc1)n1cncn1 [(2S, 3S)-paclobutrazol]
individual first order degradation rate constant [9]: 0.0634 min⁻¹

COCC(=O)N(c1c(C)cccc1C)[C@@H](C)C(=O)OC [(+)-S-MX]
individual degradation constant [10]: 0.0864 min⁻¹ | half-life [11]: 7.71 min

COC(=O)[C@@H](C)Oc1ccc(Oc2ccc(Cl)cc2Cl)cc1 [(R)-DM]
individual first order degradation rate constant [12]: 0.0346 min⁻¹

COC(=O)[C@H](C)Oc1ccc(Oc2ccc(Cl)cc2Cl)cc1 [(S)-DM]
individual first order degradation rate constant [12]: 0.1904 min⁻¹

COCC(=O)N(c1c(C)cccc1C)[C@H](C)C(=O)OC [(−)-R-MX]
individual degradation constant [10]: 0.0415 min⁻¹ | half-life [11]: 15.58 min

CCOC1Oc2ccc(OS(C)(=O)=O)cc2C1(C)C (stereo not shown) [ETO, ethofumesate]
enantiomeric enrichment factor ([13]; ETO, reconstructed from concentration–time curves of Fig. 2 in ref 53, R^2 = 0.96): −75 ± 11%

COC(=O)C(C)Oc1ccc(Oc2ccc(Cl)cc2Cl)cc1 (stereo not shown) [diclofop-methyl]
enantiomeric enrichment factor [14]: −142 ± 40%

CCCCC(O)(Cn1cncn1)c1ccc(Cl)cc1Cl (stereo not shown) [hexaconazole]
enantiomeric enrichment factor [15]: −37 ± 2% | enantiomeric enrichment factor ([13]; hexaconazole, reconstructed from Fig. 3a in ref 24, R^2 = 0.99): −184 ± 6%

COCC(=O)N(c1c(C)cccc1C)C(C)C(=O)OC (stereo not shown) [metalaxyl]
Enantiomeric enrichment factor, εER ([10]; reconstructed from data of Fig. 3a in ref 22, R^2 = 0.94): −78 ± 14%

CCCCC(C#N)(Cn1cncn1)c1ccc(Cl)cc1 (stereo not shown) [myclobutanil]
enantiomeric enrichment factor ([13]; myclobutanil, reconstructed from Fig. 3a in ref 52, R^2 = 0.97): −24 ± 2% | enantiomeric enrichment factor ([16]; rabbit brain, from Fig. 3 in ref 26, R^2 = 0.97): −20 ± 6 | enantiomeric enrichment factor ([16]; rabbit kidney, from Fig. 3 in ref 26, R^2 = 0.89): −32 ± 16 | enantiomeric enrichment factor ([16]; rabbit liver, from Fig. 3 in ref 26, R^2 = 0.92): −33 ± 16 | enantiomeric enrichment factor ([16]; rabbit muscle, from Fig. 3 in ref 26, R^2 = 0.97): −21 ± 6 | enantiomeric enrichment factor ([16]; rabbit plasma, intravenous racemate, from Fig. 1A in ref 26, R^2 = 0.97): −28 ± 5 | decay kinetics / adherence to the Rayleigh law ([16]; rabbits' hearts and fats, data of ref 26): does not follow linear kinetics
